Measured values from ChEMBL document CHEMBL1811856 (J Med Chem, 2011).

What was measured:
[1] = Displacement of [3H]SCH-23390 from dopamine D1 like receptor in porcine striatal membranes after 30 mins by scintillation counting; assay type: cell membranes, Sus scrofa, Striatum, Membrane
[2] = Displacement of [3H]spiperone from dopamine D2 like receptor in porcine striatal membranes after 30 mins by scintillation counting; assay type: cell membranes, Sus scrofa, Striatum, Membrane
Sus scrofa = species: Sus scrofa; assay: Selectivity ratio Ki for dopamine D2 like receptor in porcine striatal membranes to Ki for dopamine D1 like receptor in porcine striatal membranes; assay type: cell membranes

SMILES | Ki [1] [µM] | Ki [2] [µM] | Ratio Ki (Sus scrofa)
C[C@@H]1Cc2cc(O)c(O)cc2[C@H]2c3ccccc3CN[C@@H]21 | > 10 | 7.38 | < 0.74
C[C@@H]1C[C@H]2NCc3ccccc3[C@@H]2c2cc(O)c(O)cc21 (racemic) | 0.27 | 5.53 | 20
C[C@H]1C[C@H]2NCc3ccccc3[C@@H]2c2cc(O)c(O)cc21 (racemic) | 0.92 | 3.63 | 3.9
C[C@H]1Cc2cc(O)c(O)cc2[C@H]2c3ccccc3CN[C@@H]21 (racemic) | 6.54 | 8.67 | 1.3
Oc1cc2c(cc1O)[C@H]1c3ccccc3CN[C@@H]1CC2 (racemic) [DIHYDREXIDINE] | – | 0.24 | –
